In patent US5169857A, “7-(polysubstituted pyridyl)-hept-6-endates useful for treating hyperproteinaemia, lipoproteinaemia or arteriosclerosis” (Bayer Aktiengesellschaft, priority 1988, dated 1992):

Experiments:
serum cholesterol = experiment: subchronic action on the blood cholesterol values of dogs in feeding experiments; type: in vivo; conditions: 8 mg/kg p.o. daily for 2 weeks; beagle dogs; colestyramine 4 g/100 g of feed throughout; vs values before administration
Method: The subchronic action of the compounds according to the invention on the blood cholesterol values of dogs was tested in feeding experiments of several weeks duration. For this, the substance to be investigated was given p.o. once daily in a capsule to healthy beagle dogs together with the feed over a period of time lasting several weeks. Colestyramine (4 g/100 g of feed) as the […] sequestrant was additionally admixed in the feed during the entire experimental period, i.e. before, during and after the administration period of the substances to be investigated. Venous blood was taken from the dogs twice weekly and the serum cholesterol was determined enzymatically using a commercial test kit. The serum cholesterol values during the administration period were compared with the serum cholesterol values before the administration period (controls).

[1] = target: T1, HMG-CoA reductase (3-hydroxy-3-methyl-glutaryl coenzyme A reductase) (Rattus norvegicus, UniProt P51639); experiment: determination of HMG-CoA reductase enzyme activity (rat liver enzyme preparation); relative inhibitory potency vs mevinolin; conditions: relative inhibitory potency from IC50 values; IC50 of reference mevinolin set at 1; 20 min preincubation, 60 min at 37° C.
T1 sequence (P51639 1-887): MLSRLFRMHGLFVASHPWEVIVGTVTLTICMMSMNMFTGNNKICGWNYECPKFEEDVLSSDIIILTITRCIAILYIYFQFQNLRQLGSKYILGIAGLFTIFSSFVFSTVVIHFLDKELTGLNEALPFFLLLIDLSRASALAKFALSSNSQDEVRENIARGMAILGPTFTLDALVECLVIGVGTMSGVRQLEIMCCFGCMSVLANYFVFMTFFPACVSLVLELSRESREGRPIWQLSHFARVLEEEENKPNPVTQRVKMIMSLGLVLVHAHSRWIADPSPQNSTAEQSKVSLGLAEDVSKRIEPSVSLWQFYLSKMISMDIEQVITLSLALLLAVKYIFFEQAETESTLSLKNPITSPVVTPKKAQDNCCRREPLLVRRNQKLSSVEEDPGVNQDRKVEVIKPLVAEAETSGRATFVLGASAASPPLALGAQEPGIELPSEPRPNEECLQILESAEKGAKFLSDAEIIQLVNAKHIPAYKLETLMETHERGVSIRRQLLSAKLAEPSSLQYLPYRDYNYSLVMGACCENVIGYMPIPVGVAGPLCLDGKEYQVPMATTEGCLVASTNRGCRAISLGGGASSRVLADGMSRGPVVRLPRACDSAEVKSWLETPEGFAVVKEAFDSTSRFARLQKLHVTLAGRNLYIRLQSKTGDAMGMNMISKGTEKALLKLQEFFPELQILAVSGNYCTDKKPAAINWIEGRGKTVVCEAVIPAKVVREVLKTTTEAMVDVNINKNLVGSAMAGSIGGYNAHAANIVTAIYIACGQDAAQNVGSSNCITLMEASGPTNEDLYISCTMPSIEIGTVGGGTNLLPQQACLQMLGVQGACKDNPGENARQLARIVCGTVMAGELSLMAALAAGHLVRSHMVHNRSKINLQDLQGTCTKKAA
Method: Male Rico rats (body weight 300-400 g) were treated for 11 days with Altromin powdered feed, to which 40 g of colestyramine/kg of feed was added. After decapitation, the liver was removed from the animals and placed on ice. The livers were comminuted and homogenized 3 times in a Potter-Elvejem homogenizer in 3 volumes of 0.1 M saccharose, 0.05 M KCl, 0.04 M Kx Hy phosphate, 0.03 M ethylenediaminetetraacetic acid, 0.002 M dithiothreitol (SPE) buffer pH 7.2. The mixture was subsequently centrifuged for 15 minutes at 15,000* g and the sediment rejected. The supernatant was sedimented for 75 minutes at 100,000 g. The pellet is taken up in 1/4 volume of SPE buffer, homogenized once again and subsequently centrifuged again for 60 minutes at 100,000 g. The pellet is taken up using the 5-fold amount of its volume of SPE buffer, homogenized and frozen and stored at -78° C. (=enzyme solution).
For testing, the test compounds (or mevinolin as a reference substance) were dissolved in dimethylformamide with the addition of 5% by volume of 1 N NaOH and employed in the enzyme test in various concentrations using 10 μl. The test was started after preincubation of the compound with the enzyme at 37° C. for 20 minutes. The test batch was 0.380 ml and contained 4 μmol of glucose-6-phosphate, 1.1 mg of bovine serum albumin, 2.1 μmol of dithiothreitol, 0.35 μmol of NADP, 1 unit of glucose-6-phosphate dehyrogenase 35 μmol of KxHy phosphate PH 7.2, 20 μl of enzyme preparation and 56 nmol of 3x hydroxy-3-methyl-glutarylconenzyme A (glutaryl-3-^14 C) 100,000 dpm.
After incubation for 60 minutes at 37° C., the batch was centrifuged and 600 μl of the supernatant was applied to a 0.7×4 cm column filled with a 5-chloride 100-200 mesh (anion exchanger). It was washed with 2 ml of distilled water and 3 ml of aquasol were added to the runnings plus washing water and counted in the LKB scintillation counter. IC50 values were determined by intrapolation by plotting the percentage inhibition against the concentration of the compound in the test. To determine the relative inhibitory potency, the IC50 value of the reference substance mevinolin was set at 1 and compared with the simultaneously determined IC50 value of the test compound.

Rel. Activity (Mevinolin = 1) [1] | Compound | lowering of the serum cholesterol (serum cholesterol)
4 | COC(=O)C[C@H](O)C[C@H](O)/C=C/c1c(C(C)C)nc(C(C)C)c(CN2CCOCC2)c1-c1ccc(F)cc1 (relative stereo) [Example 105, Methyl erythro-(E)-7-[2,6-diisopropyl-4-(4-fluorophenyl)-5-morpholinomethyl-pyrid-3-yl]-3,5-dihydroxy-hept-6-enoate] | 
3 | COC(=O)C[C@H](O)C[C@H](O)/C=C/c1c(C(C)C)nc(C(C)C)c(CSCc2ccccc2)c1-c1ccc(F)cc1 (relative stereo) [Example 107, Methyl erythro-(E)-7-[2,6-diisopropyl-4-[4-fluorophenyl)-5-benzylthio-methyl-pyrid-3-yl]-3,5-dihydroxy-hept-6-enoate] | 
20 | COC(=O)C[C@H](O)C[C@H](O)/C=C/c1c(-c2ccc(F)cc2)nc(C)c(C#N)c1C(C)C (relative stereo) [Example 139, Methyl erythro-(E)-7-[5-cyano-2-(4-fluorophenyl)-4-isopropyl-6-methyl-pyrid-3-yl]-3,5-dihydroxy-hept-6-enoate] | 

Second part, the molecule before the results:

Compound | Rel. Activity (Mevinolin = 1) [1] | lowering of the serum cholesterol (serum cholesterol)
COC(=O)C[C@H](O)C[C@H](O)/C=C/c1c(C(C)C)nc(C(C)C)c(COCc2ccccc2)c1-c1ccc(F)cc1 (relative stereo) [Example 17, Methyl erythro-(E)-7-[3-benzyloxymethyl-2,6-diisopropyl-4-(4-fluorophenyl)-pyrid-5-yl]-3,5-dihydroxy-hept-6-enoate] | 20 | about 66%
CCC(C)(C)C(=O)OCc1c(C(C)C)nc(C(C)C)c(/C=C/[C@@H](O)C[C@@H](O)CC(=O)OC)c1-c1ccc(F)cc1 (relative stereo) [Example 70, Methyl erythro-(E)-7-[2,6-diisopropyl-5-(2,2-dimethyl-butyryloxymethyl)-4-(4-fluorophenyl)-pyrid-3-yl]-3,5-dihydroxy-hept-6-enoate] | 30 | 
COC(=O)C[C@H](O)C[C@H](O)/C=C/c1c(C(C)C)nc(C(C)C)c(COC(C)=O)c1-c1ccc(F)cc1 (relative stereo) [Example 72, methyl erythro-(E)-7-[3-acetoxymethyl-2,6-diisopropyl-4-(4-fluorophenyl)-pyrid-5-yl]-3,5-dihydroxy-hept-6-enoate] | 17 | 
COCc1c(C2CC2)nc(C(C)C)c(/C=C/[C@@H](O)C[C@@H](O)CC(=O)OC)c1-c1ccc(F)cc1 (relative stereo) [Example 85, Methyl erythro-(E)-7-[6-cyclopropyl-2-isopropyl-4-(4-fluorophenyl)-5-methoxymethyl-pyrid-3-yl]-3,5-dihydroxy-hept-6-enoate] | 20 | 
COC(=O)C[C@H](O)C[C@H](O)/C=C/c1c(C(C)C)nc(C(C)C)c(COc2ccccc2)c1-c1ccc(F)cc1 (relative stereo) [Example 89, Methyl erythro-(E)-7-[2,6-diisopropyl-4-(4-fluorophenyl)-5-phenoxymethyl-pyrid-3-yl]-3,5-dihydroxy-hept-6-enoate] | 10 | 
COC(=O)C[C@H](O)C[C@H](O)/C=C/c1c(C(C)C)nc(C(C)C)c(-c2ccccc2)c1-c1ccc(F)cc1 (relative stereo) [Example 99] | 20 | 
CCOC(=O)c1c(C(C)C)nc(C(C)C)c(/C=C/[C@@H](O)C[C@@H](O)CC(=O)OC)c1-c1ccc(F)cc1 (relative stereo) [Example 100, Methyl erythro-(E)-7-[2,6-diisopropyl-4-(4-fluorophenyl)-5-carboxyethyl-pyrid-3-y]-3,5-dihydroxy-hept-6-enoate] | 30 | 
